The text below walks through data of patent US10919895B2, “Toll-like receptor 7 (TLR7) agonists having a pyridine or pyrazine moiety, conjugates thereof, and methods and uses therefor” (BRISTOL-MYERS SQUIBB COMPANY, priority 2017, dated 2021).

Assay [1] addresses human TLR7 (Homo sapiens (Human), UniProt Q9NYK1). Briefly: HEK-Blue TLR7 reporter assay for TLR7 agonist activity. The assay is classed as cell-based. The note with it: HEK-Blue TLR7 cells, SEAP reporter, 18 h treatment; read-out: TLR7 Agonism (EC50). The method, then:
This example describes a method for assaying TLR7 agonist activity of the compounds disclosed in this specification.
HEK-Blue™ TLR7 cells were added to each well of a 384-well tissue-culture plate (15,000 cells per well) and incubated 16-18 h at 37° C., 5% CO2. Compounds (100 nl) were dispensed into wells containing the HEK-Blue™ TLR cells and the treated cells were incubated at 37° C., 5% CO2. After 18 h treatment ten microliters of freshly-prepared Quanti-Blue™ reagent (Invivogen) was added to each well, incubated for 30 min (37° C., 5% CO2) and SEAP levels measured using an Envision plate reader (OD=620 nm).

Assay [2] has as its system interleukin 6 (IL-6). The assay can be described thus: IL-6 induction in human whole blood (AlphaLISA). The assay is classed as cell-based. The note with it: 37° C., 20 h. The method, then:
This example describes a method for assaying interleukin 6 induction by compounds disclosed in this specification.
Compounds diluted in DMSO were transferred to individual wells of a Matrix Technologies clear, V-bottom 384-well plate using ECHO acoustic liquid handling technology (25 nL per well). Human whole-blood samples (25 uL) were added to each well using a CyBio FeliX liquid handling instrument. The plate was shaken on a plate shaker for three min before incubating the reaction mixtures at 37° C. for 20 h. Basel RPMI 1640 medium (supplemented with L-glutamine) was then added to each well (25 uL per well) prior to liberating plasma from each sample by centrifugation (450×g, 5 min, ambient temperature). Treated plasma samples (3 uL) were subsequently transferred to individual wells of a white, shallow, 384-well ProxiPlate (Perkin Elmer) using the FeliX liquid handling instrument and their interleukin 6 levels were measured using AlphaLISA technology as described by the manufacturer, PerkinElmer. Data analyses software was used to determine compound EC50 values where the baseline was established using average DMSO values and 100% induction established using reference compound values at the highest concentration tested. EC50's can be determined with software such as Graphpad Prism™.
Background: Alpha assays give light when donor and acceptor beads are brought close together.

Assay [3] relates to IFN-α. Conditions: fold lower potency vs corresponding purine-8-one compound; cited from earlier work.

Broadly, the EC50 is the concentration giving half of the maximal effect.

Structures are written as SMILES.

Sequence of human TLR7 (Q9NYK1 27-1049): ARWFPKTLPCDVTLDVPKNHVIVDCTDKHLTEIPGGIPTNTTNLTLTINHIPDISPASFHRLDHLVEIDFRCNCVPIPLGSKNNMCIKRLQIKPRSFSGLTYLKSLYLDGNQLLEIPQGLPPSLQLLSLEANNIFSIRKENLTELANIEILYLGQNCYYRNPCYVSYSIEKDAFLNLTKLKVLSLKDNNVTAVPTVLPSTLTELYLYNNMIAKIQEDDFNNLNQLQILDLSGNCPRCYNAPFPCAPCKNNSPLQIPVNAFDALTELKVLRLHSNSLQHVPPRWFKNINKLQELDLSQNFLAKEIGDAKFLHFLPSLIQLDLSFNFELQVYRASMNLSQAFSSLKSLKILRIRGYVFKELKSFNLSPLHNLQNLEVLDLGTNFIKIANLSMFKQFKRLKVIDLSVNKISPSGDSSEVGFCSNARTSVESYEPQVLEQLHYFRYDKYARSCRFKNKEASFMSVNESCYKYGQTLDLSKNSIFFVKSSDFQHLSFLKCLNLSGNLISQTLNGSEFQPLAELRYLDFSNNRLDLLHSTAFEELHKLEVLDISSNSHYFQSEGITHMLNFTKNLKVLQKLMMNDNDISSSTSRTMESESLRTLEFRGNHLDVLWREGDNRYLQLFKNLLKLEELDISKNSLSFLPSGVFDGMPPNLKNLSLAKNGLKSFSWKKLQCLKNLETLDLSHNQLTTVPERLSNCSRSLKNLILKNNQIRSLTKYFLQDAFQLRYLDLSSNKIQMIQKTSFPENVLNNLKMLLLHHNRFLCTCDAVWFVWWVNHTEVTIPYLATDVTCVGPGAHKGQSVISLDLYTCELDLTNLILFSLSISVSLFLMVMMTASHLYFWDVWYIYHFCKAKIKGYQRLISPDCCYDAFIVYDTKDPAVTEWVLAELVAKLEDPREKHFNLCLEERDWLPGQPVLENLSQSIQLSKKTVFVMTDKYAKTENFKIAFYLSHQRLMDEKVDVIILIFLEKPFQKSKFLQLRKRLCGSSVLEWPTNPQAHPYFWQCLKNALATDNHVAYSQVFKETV

Turning to `CCCCOc1nc(N)c2nc(O)n(Cc3cnc(CO)cn3)c2n1` [Compound 6], the 50% effective concentration (EC50) in assay [1] is 288 nM. Regarding `CCCCOc1nc(N)c2nc(O)n(Cc3ccccc3)c2n1` [Compound B, reference compound], the EC50 in assay [1] was found to be 470 nM. Turning to `CCCCOc1nc(N)c2nc(O)n(Cc3cnc(CNCc4ccncc4)cn3)c2n1` [Ia-01], the EC50 in assay [1] is 330 nM; in assay [2] it was 1000 nM. With `CCCCOc1nc(N)c2nc(O)n(Cc3cnc(CNCC4COC4)cn3)c2n1` [Ia-02], the EC50 in assay [1] came to 11200 nM.

As to `CCCCOc1nc(N)c2nc(O)n(Cc3cnc(CNCc4ccccc4)cn3)c2n1` [Ia-03], the EC50 in assay [1] was found to be 180 nM; in assay [2], 1000 nM. With `CCCCOc1nc(N)c2nc(O)n(Cc3cnc(CNCCOC)cn3)c2n1` [Ia-04], the EC50 in assay [1] worked out at 310 nM; in assay [2], 600 nM. As to `CCCCOc1nc(N)c2nc(O)n(Cc3cnc(CNC4CC4)cn3)c2n1` [Ia-05], the concentration for a half-maximal effect (EC50) is 140 nM in assay [1] and 360 nM in assay [2]. As to `CCCCOc1nc(N)c2nc(O)n(Cc3cnc(CNC(C)C)cn3)c2n1` [Ia-06], the figures for the 50% effective concentration (EC50) in assay [1] and in assay [2] were 83 nM and 210 nM, respectively. For `CCCCOc1nc(N)c2nc(O)n(Cc3cnc(CNC4COC4)cn3)c2n1` [Ia-07], in that order: 490 nM and 1000 nM. As for `CCCCOc1nc(N)c2nc(O)n(Cc3cnc(CNC4CCC4)cn3)c2n1` [Ia-08], the EC50 in assay [1] was 24 nM; in assay [2], 220 nM. With `CCCCNCc1cnc(Cn2c(O)nc3c(N)nc(OCCCC)nc32)cn1` [Ia-09], the values for the concentration giving a half-maximal response (EC50) in assay [1] and in assay [2] were 89 nM and 420 nM, respectively. Taken in the same sequence, the figures for `CCCCOc1nc(N)c2nc(O)n(Cc3cnc(CNC)cn3)c2n1` [Ia-10] were 290 nM and 570 nM. Consider `CCCCNCc1ccc(Cn2c(O)nc3c(N)nc(OCCCC)nc32)nc1` [Ib-01], for which the EC50 in assay [1] was 15 nM; in assay [2], 77 nM. Consider `CCCCOc1nc(N)c2nc(O)n(Cc3ccc(CNCCOC)cn3)c2n1` [Ib-02], for which the EC50 in assay [1] amounted to 28 nM; in assay [2], 110 nM. Regarding `CCCCOc1nc(N)c2nc(O)n(Cc3ccc(CNC4CC4)cn3)c2n1` [Ib-03], the EC50 is 18 nM in assay [1] and 62 nM in assay [2]. In the case of `CCCCOc1nc(N)c2nc(O)n(Cc3ccc(CNC4CCC4)cn3)c2n1` [Ib-04], the EC50 in assay [1] came out at 12 nM; in assay [2], 78 nM. Taken in the same sequence, the figures for `CCCCOc1nc(N)c2nc(O)n(Cc3ccc(CNCCCN)cn3)c2n1` [Ib-05] were 62 nM and 260 nM. Consider `CCCCOc1nc(N)c2nc(O)n(Cc3ccc(CNCc4ccccc4)cn3)c2n1` [Ib-06], for which the EC50 in assay [2] amounted to 190 nM. As to `CCCCOc1nc(N)c2nc(O)n(Cc3ccc(CNCc4ccc(N)cc4)cn3)c2n1` [Ib-07], the EC50 came to 41 nM in assay [1] and 100 nM in assay [2]. `CCCCOc1nc(N)c2nc(O)n(Cc3ccc(CNCCCOCCOCCOCCCNC(=O)OC(C)(C)C)cn3)c2n1` [Ib-08]: the concentration giving a half-maximal response (EC50) turned out to be 47 nM in assay [1] and 330 nM in assay [2]. Taken in the same sequence, the figures for `CCCCNCc1ccc(Cn2c(O)nc3c(N)nc(OCCCC)nc32)cn1` [Ic-01] were 4.8 nM and 26 nM. In the case of `CCCCOc1nc(N)c2nc(O)n(Cc3ccc(CNCCOC)nc3)c2n1` [Ic-02], the EC50 in assay [1] stood at 9 nM. Turning to `CCCCOc1nc(N)c2nc(O)n(Cc3ccc(CNC4CC4)nc3)c2n1` [Ic-03], the EC50 was determined as 5.3 nM in assay [1] and 14 nM in assay [2]. Turning to `CCCCOc1nc(N)c2nc(O)n(Cc3ccc(CNCCCN)nc3)c2n1` [Ic-05], the values for the EC50 in assay [1] and in assay [2] were 14 nM and 28 nM, respectively. As for `CCCCOc1nc(N)c2nc(O)n(Cc3ccc(CNCc4ccccc4)nc3)c2n1` [Ic-06], in assay [2], the half-maximal effective concentration (EC50) turned out to be 180 nM. For `CCCCOc1nc(N)c2nc(O)n(Cc3ccc(CNCc4ccc(N)cc4)nc3)c2n1` [Ic-07], the EC50 in assay [1] came to 11 nM; in assay [2], 20 nM. For `CCCCOc1nc(N)c2nc(O)n(Cc3ccc(CNCCCOCCOCCOCCCNC(=O)OC(C)(C)C)nc3)c2n1` [Ic-08], the 50% effective concentration (EC50) in assay [1] was found to be 23 nM; in assay [2] it was 150 nM. On to `CCCCCCNCc1ccc(Cn2c(O)nc3c(N)nc(OCCCC)nc32)cn1` [Ic-09], for which the midpoint of the response in assay [2], the EC50, lay at 37 nM. In the case of `CCCCOc1nc(N)c2nc(O)n(Cc3ccc(CNCCC)nc3)c2n1` [Ic-10], the values for the EC50 in assay [1] and in assay [2] were 6.1 nM and 27 nM, respectively.

Molecule `CCCCOc1nc(N)c2nc(O)n(Cc3ccc(CNC4CCCC4)nc3)c2n1` [Ic-11] came in with a half-maximal effective concentration (EC50) in assay [2] of 23 nM. Same read-out and setting: to `CCCCOc1nc(N)c2nc(O)n(Cc3ccc(CN4CCC(N)CC4)nc3)c2n1` [Ic-12] belongs 13 nM. The same measure, in the same setting: to `CCCCOc1nc(N)c2nc(O)n(Cc3ccc(CN4CCC(CN)CC4)nc3)c2n1` [Ic-13] belongs 11 nM. With `CCCCOc1nc(N)c2c(n1)N(Cc1cccc(CN3CCCC3)c1)CC(=O)N2` [Vesatolimod, vesatolimod], the “potency less than that of the corresponding purine-8-one compound, as measured by IFN-α induction” value in assay [3] was 100 ×.
